Target: Protein phosphatase methylesterase 1 (Homo sapiens) (UniProt Q9Y570)
Assay: PME-1 activity inhibition following gel filtration – gel-based ABPP, late-stage follow-up (AID 2368)
Conditions: PME-1 labeling, stronger effect = higher value, concentration not given here

Chain of Protein phosphatase methylesterase 1 (Homo sapiens) (Q9Y570 whole entry, looked up): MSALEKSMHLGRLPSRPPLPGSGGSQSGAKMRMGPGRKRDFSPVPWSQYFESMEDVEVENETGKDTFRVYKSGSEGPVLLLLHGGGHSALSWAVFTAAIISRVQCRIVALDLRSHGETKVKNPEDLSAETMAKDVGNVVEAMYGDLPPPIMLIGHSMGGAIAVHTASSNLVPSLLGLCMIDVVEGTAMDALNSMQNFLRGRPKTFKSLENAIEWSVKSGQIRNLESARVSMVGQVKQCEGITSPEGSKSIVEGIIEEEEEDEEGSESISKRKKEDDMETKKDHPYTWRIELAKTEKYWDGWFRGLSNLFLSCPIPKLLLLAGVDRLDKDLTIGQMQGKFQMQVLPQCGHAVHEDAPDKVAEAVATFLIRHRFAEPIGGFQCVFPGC

| inhibition [%] | Compound |
| --- | --- |
| > 50 | N#C/C(=C\c1cccn1S(=O)(=O)c1cccc(C#N)c1)S(=O)(=O)c1ccc(F)cc1 |
| > 50 | N#C/C(=C\c1cccn1S(=O)(=O)c1cccc([N+](=O)[O-])c1)S(=O)(=O)c1ccc(F)cc1 |
